Laboratory results published in ChEMBL document CHEMBL1909046, “DrugMatrix in vitro pharmacology data”.
pIC50, pKi: −log10 of the molar value.

Key:
[1] = biological target: Aldo-keto reductase family 1 member B1 (Rattus norvegicus, UniProt P07943); assay: biochemical; format: tissue-based, Lens of camera-type eye; settings: for pIC50: read-out: IC50;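 as to all read-outs here: inhibition of aldose reductase enzyme activity, measured with DL-glyceraldehyde as the substrate; in other assays of this panel Not Active means under 50% inhibition at 10 µM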
[2] = biological target: T1, Cholecystokinin receptor type A (Homo sapiens, UniProt P32238); format: cell membranes, Membrane; settings: 1321-n1; also: in other assays of this panel Not Active means under 50% inhibition at 10 µM
T1 sequence (P32238 whole entry): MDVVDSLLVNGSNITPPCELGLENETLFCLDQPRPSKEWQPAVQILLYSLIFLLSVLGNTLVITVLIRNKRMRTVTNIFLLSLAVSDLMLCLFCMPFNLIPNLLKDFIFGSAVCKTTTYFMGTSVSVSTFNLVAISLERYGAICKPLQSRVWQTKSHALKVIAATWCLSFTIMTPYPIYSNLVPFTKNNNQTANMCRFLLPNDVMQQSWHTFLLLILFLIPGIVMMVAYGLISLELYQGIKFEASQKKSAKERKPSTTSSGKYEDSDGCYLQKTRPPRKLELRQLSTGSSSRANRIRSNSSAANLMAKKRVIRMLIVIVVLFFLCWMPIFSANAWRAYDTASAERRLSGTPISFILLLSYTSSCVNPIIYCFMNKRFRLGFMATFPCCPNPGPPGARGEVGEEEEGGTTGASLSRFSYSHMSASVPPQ

[3] = DRUGMATRIX: Imidazoline I2, Central radioligand binding (ligand: [3H] Idazoxan); format: cell membranes, Rattus norvegicus, Wistar, Cerebral cortex, Membrane; settings: Not Active = under 50% inhibition at 10 µM
[4] = biological target: T2, Neuropeptide Y receptor type 2 (Homo sapiens, UniProt P49146); format: cell membranes, Membrane; settings: kan-ts; also: in other assays of this panel Not Active means under 50% inhibition at 10 µM
T2 sequence (P49146 whole entry): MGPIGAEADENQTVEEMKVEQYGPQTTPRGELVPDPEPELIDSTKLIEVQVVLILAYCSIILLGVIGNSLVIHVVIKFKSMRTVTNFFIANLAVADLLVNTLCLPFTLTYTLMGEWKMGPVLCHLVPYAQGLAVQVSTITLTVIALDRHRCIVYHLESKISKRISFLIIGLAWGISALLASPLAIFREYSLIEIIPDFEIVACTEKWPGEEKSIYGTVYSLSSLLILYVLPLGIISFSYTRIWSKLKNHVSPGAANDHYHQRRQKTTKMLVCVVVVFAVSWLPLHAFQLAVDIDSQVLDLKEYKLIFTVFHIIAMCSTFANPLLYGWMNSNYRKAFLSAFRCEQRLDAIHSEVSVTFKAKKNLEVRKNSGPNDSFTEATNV

[5] = biological target: T3, Nitric oxide synthase, inducible (Mus musculus, UniProt P29477); set-up: species or system Escherichia coli;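 also: inhibition of iNOS enzyme activity measured with L-arginine as substrate; in other assays of this panel Not Active means under 50% inhibition at 10 µM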
T3 sequence (P29477 whole entry): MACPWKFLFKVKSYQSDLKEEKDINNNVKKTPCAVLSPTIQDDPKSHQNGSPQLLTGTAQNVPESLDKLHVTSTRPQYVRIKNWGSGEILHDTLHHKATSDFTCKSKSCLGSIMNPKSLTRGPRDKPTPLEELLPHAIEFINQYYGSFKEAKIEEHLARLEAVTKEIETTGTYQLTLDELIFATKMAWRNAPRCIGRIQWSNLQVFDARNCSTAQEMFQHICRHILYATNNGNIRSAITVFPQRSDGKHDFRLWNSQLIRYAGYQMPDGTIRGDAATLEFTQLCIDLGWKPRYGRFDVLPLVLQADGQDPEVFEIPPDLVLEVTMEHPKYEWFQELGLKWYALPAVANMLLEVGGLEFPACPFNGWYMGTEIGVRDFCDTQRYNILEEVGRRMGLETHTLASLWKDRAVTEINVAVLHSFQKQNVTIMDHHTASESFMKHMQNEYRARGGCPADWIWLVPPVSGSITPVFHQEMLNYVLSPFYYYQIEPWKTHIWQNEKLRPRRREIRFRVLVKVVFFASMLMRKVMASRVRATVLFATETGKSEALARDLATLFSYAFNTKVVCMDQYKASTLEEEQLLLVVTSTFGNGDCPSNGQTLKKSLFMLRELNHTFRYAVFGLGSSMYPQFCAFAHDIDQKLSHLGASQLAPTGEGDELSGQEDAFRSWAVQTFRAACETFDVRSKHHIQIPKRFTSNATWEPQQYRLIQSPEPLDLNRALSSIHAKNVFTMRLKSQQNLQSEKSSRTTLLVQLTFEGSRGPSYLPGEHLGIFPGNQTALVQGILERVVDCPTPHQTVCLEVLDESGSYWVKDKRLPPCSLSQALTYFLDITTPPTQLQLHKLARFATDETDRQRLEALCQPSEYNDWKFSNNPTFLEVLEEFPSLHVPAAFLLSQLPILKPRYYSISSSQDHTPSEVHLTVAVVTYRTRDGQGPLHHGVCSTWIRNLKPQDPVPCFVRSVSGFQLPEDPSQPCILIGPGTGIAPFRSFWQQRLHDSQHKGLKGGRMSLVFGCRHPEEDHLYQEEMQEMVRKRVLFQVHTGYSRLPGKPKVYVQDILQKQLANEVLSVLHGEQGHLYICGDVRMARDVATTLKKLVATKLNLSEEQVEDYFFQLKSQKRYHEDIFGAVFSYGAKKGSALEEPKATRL

[6] = DRUGMATRIX: Potassium Channel [KATP] radioligand binding (ligand: [3H] Glyburide); format: cell membranes, Membrane; settings: hit-t15; Not Active = under 50% inhibition at 10 µM
[7] = biological target: Tyrosine-protein kinase Lck (Homo sapiens, UniProt P06239); assay: DRUGMATRIX: Protein Tyrosine Kinase, LCK enzyme inhibition (substrate: Poly(Glu:Tyr)); format: cell-based, Insect cells; settings: Not Active = under 50% inhibition at 10 µM
Sequence of Tyrosine-protein kinase Lck (P06239 whole entry): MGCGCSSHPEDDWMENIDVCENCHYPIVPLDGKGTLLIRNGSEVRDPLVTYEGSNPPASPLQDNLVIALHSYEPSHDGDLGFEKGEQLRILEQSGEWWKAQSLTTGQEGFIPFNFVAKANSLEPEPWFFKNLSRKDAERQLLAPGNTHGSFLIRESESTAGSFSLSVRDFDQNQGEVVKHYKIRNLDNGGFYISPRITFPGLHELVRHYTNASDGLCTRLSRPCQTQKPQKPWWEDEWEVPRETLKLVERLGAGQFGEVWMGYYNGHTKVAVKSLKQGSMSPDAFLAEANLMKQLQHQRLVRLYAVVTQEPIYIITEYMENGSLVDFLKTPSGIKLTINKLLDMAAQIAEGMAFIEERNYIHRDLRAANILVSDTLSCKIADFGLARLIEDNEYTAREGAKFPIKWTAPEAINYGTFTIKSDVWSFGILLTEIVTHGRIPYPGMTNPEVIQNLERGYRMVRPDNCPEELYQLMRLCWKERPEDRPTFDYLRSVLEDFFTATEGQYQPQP

Cytochrome P450 2A6 = biological target: T4, Cytochrome P450 2A6 (Homo sapiens, UniProt P11509); settings: bti-tn-5b1-4; also: in other assays of this panel Not Active means under 50% inhibition at 10 µM
T4 sequence (P11509 whole entry): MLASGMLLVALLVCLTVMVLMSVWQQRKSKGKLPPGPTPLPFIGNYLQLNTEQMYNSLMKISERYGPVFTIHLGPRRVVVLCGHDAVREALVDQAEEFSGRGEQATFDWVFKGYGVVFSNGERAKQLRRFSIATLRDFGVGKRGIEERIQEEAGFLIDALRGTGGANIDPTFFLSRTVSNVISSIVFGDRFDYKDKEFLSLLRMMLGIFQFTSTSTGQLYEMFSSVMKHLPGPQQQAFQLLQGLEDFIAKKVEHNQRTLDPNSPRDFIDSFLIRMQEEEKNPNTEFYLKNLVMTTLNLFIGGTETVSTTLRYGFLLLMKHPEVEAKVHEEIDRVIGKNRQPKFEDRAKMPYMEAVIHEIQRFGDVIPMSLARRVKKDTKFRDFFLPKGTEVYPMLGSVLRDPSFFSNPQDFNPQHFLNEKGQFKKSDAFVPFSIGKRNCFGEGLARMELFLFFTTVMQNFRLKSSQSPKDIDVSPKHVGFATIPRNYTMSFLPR

Row | Molecule | IC50 [1] | IC50 [2] | IC50 [3] | Ki [3] | IC50 [4] | IC50 [5] | IC50 [6] | Ki [6] | IC50 ([7]; insect cells) | IC50 (Cytochrome P450 2A6) | Ki (Cytochrome P450 2A6) | pIC50 [1] | pIC50 ([7]; read-out: IC50) | pIC50 ([3]; read-out: IC50) | pKi ([3]; read-out: Ki) | Ki [1] | Ki [2] | Ki [4] | Ki [5] | Ki ([7]; insect cells)
1 | CC1(C)O[C@@H]2C[C@H]3[C@@H]4CCC5=CC(=O)C=C[C@]5(C)[C@@]4(F)[C@@H](O)C[C@]3(C)[C@]2(C(=O)CO)O1 [TRIAMCINOLONE ACETONIDE] | Not Active | Not Active | Not Active | Not Active | Not Active | Not Active | Not Active | Not Active | Not Active | Not Active | Not Active |  |  |  |  |  |  |  |  | 
2 | CSc1ccc(/C=C2/C(C)=C(CC(=O)O)c3cc(F)ccc32)cc1 [SULINDAC SULFIDE] |  | Not Active | Not Active | Not Active | Not Active | Not Active | Not Active | Not Active | Not Active | Not Active | Not Active | 7.08 |  |  |  |  |  |  |  | 
3 | Nc1c2c(nc3ccccc13)CCCC2 [TACRINE] | Not Active | Not Active | Not Active | Not Active | Not Active | Not Active | Not Active | Not Active | Not Active | Not Active | Not Active |  |  |  |  |  |  |  |  | 
4 | N[C@@H](Cc1ccc(O)c(O)c1)C(=O)O [LEVODOPA] | Not Active | Not Active | Not Active | Not Active | Not Active | Not Active | Not Active | Not Active |  | Not Active | Not Active |  | 5.43 |  |  |  |  |  |  | 
5 | O=NN(CCCl)C(=O)NC1CCCCC1 [LOMUSTINE] | Not Active | Not Active | Not Active | Not Active | Not Active | Not Active | Not Active | Not Active | Not Active | Not Active | Not Active |  |  |  |  |  |  |  |  | 
6 | Cc1c(C)c2c(c(C)c1O)CCC(C)(COc1ccc(CC3SC(=O)NC3=O)cc1)O2 (stereo not given) [TROGLITAZONE] |  | Not Active | Not Active | Not Active | Not Active | Not Active | Not Active | Not Active | Not Active | Not Active | Not Active | 5.69 |  |  |  |  |  |  |  | 
7 | CCOC(=O)N1CCC(=C2c3ccc(Cl)cc3CCc3cccnc32)CC1 [LORATADINE] | Not Active | Not Active | Not Active | Not Active | Not Active | Not Active | Not Active | Not Active | Not Active | Not Active | Not Active |  |  |  |  |  |  |  |  | 
8 | Cc1cccc(N(C)C(=S)Oc2ccc3ccccc3c2)c1 [TOLNAFTATE] | Not Active | Not Active | Not Active | Not Active | Not Active | Not Active | Not Active | Not Active | Not Active | Not Active | Not Active |  |  |  |  |  |  |  |  | 
9 | NC[C@H]1CC[C@H](C(=O)O)CC1 [TRANEXAMIC ACID] | Not Active | Not Active | Not Active | Not Active | Not Active | Not Active | Not Active | Not Active | Not Active | Not Active | Not Active |  |  |  |  |  |  |  |  | 
10 | CC[C@@H](CO)NC(=O)[C@@H]1C=C2c3cccc4[nH]cc(c34)C[C@H]2N(C)C1 [METHYLERGONOVINE] | Not Active | Not Active |  |  | Not Active | Not Active | Not Active | Not Active | Not Active | Not Active | Not Active |  |  | 5.53 | 5.71 |  |  |  |  | 
11 | c1ccc([C@H]2CN3CCSC3=N2)cc1 [LEVAMISOLE] | Not Active | Not Active | Not Active | Not Active | Not Active | Not Active | Not Active | Not Active | Not Active | Not Active | Not Active |  |  |  |  |  |  |  |  | 
12 | OCCN(CCO)c1nc(N2CCCCC2)c2nc(N(CCO)CCO)nc(N3CCCCC3)c2n1 [DIPYRIDAMOLE] | Not Active | Not Active | Not Active | Not Active | Not Active | Not Active | Not Active | Not Active | Not Active | Not Active | Not Active |  |  |  |  |  |  |  |  | 
13 | CC(C)(C)NC(=O)[C@@H]1C[C@@H]2CCCC[C@@H]2CN1C[C@@H](O)[C@H](Cc1ccccc1)NC(=O)[C@H](CC(N)=O)NC(=O)c1ccc2ccccc2n1 | Not Active | Not Active | Not Active | Not Active | Not Active | Not Active | Not Active | Not Active | Not Active | Not Active | Not Active |  |  |  |  |  |  |  |  | 
14 | SODIUM NITROPRUSSIDE | Not Active | Not Active | Not Active | Not Active | Not Active | Not Active | Not Active | Not Active | Not Active | Not Active | Not Active |  |  |  |  | Not Active | Not Active | Not Active | Not Active | Not Active
15 | Cn1ccnc1S [METHIMAZOLE] | Not Active | Not Active | Not Active | Not Active | Not Active | Not Active | Not Active | Not Active | Not Active | Not Active | Not Active |  |  |  |  |  |  |  |  | 
